The source of these data is ChEMBL document CHEMBL1201862, “PubChem BioAssay data set” (2004).

Holding throughout (test): inhibition of tumour cell growth, NCI panel, 48 h
For test [1], the system named is SNB-78.
Test [2] concerns XF498.
Test [3] deals with DMS-114.
The subject of test [4] is HOP-18.
Test [5] deals with DMS-273.
Test [6] relates to M19-MEL.
Test [7] concerns DLD-1.
Test [8] concerns RXF 631.
Test [9] has as its system LXFL 529.

Structures are written as SMILES.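 Method: 48-hour compound exposure of cells in 96-well plates, five concentrations, linear interpolation of endpoints. GI50 is the concentration that inhibits growth by half.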 Calls of active or inactive are those of the source. Cut-off read from the data, not from the text of the source: active = GI50 up to about 1.1 µM and inactive = higher.

Consider `Cc1cc(/N=N/c2ccc(/N=N/c3c(O)c(S(=O)(=O)O)cc4cc(S(=O)(=O)O)ccc34)cc2C)ccc1/N=N/c1ccc2cc(S(=O)(=O)O)cc(S(=O)(=O)O)c2c1`, for which the GI50 was > 100 µM (inactive) in test [1]; > 73.5 µM (inactive) in test [2]; > 100 µM (inactive) in test [3]; > 100 µM (inactive) in [4]; 98.4 µM (inactive) in [5]; > 100 µM (inactive) in test [6]. For the same molecule, the GI50 in [7] was > 100 µM (inactive).
Regarding `CCC1=C(C)/C(=C/c2[nH]c(CBr)c(CC)c2C)N=C1CBr`, the GI50 is > 100 µM (inactive) in test [8]; 7.21 µM (inactive) in test [3]; 11 µM (inactive) in test [4]; > 100 µM (inactive) in [5]; 13.7 µM (inactive) in test [6]; 12.4 µM (inactive) in [7]. Further, the GI50 in [9] is 4.43 µM (inactive).
`CN1C(c2ccccc2)CC(=Nc2ccccc2)CC1c1ccccc1` (stereo not drawn): the GI50 was 15 µM (inactive) in test [1]; 20.5 µM (inactive) in test [8]; 8.79 µM (inactive) in [5]; 4.58 µM (inactive) in [6]; 10.6 µM (inactive) in test [7]; 4.46 µM (inactive) in [9].
On to `CCc1ccccc1NC(=O)C1=C(C)NC(C)=C(C(=O)Nc2ccccc2CC)C1c1ccccc1Cl`, for which the GI50 in [1] was > 100 µM (inactive); in test [2], 0.152 µM (active); in [3], > 100 µM (inactive); in test [6], > 100 µM (inactive); in [7] it was > 100 µM (inactive); in test [9], > 100 µM (inactive).
As to `COc1cccc(-n2c3nc(=O)n(C)c(=O)c-3nc3ccccc32)c1`, the GI50 in test [1] is 29.1 µM (inactive); in test [2] it was 16.3 µM (inactive); in [8], 19.1 µM (inactive); in test [3], 5.11 µM (inactive); in [4], 42.9 µM (inactive); in test [5] it was 6.95 µM (inactive). Besides, the GI50 in test [6] was 2.43 µM (inactive); in [7], 25.2 µM (inactive); in [9] it was 21.6 µM (inactive).
For `CC1=C(C(=O)Nc2ccccc2)C(c2ccccc2Cl)C(C(=O)Nc2ccccc2)=C(C)N1`, the GI50 in test [8] is 36.1 µM (inactive); in [4] it was 21.9 µM (inactive); in test [5] it was 20.8 µM (inactive); in test [6], 19.8 µM (inactive); in test [7], 35.9 µM (inactive); in test [9] it was 17.6 µM (inactive).
With `CCOc1ccc(OCC)c([P+](c2ccccc2)(c2ccccc2)c2ccccc2)c1`, the GI50 in test [1] was 0.895 µM (active); in test [2] it was 0.0841 µM (active); in test [8], 2.4 µM (inactive); in test [3] it was 0.245 µM (active); in test [4], 0.721 µM (active); in [5], 0.236 µM (active). Besides, the GI50 in test [6] is 0.4 µM (active); in [7], 0.548 µM (active); in test [9] it was 0.198 µM (active).
Consider `CCOc1ccccc1NC(=O)CC1Sc2ccccc2NC1=O` (stereo not drawn), for which the GI50 in test [1] is > 100 µM (inactive); in test [2] it was 80.4 µM (inactive); in test [8], 58.5 µM (inactive); in [4], 53.2 µM (inactive); in test [5] it was 48.6 µM (inactive); in test [6] it was 64.4 µM (inactive). Further, the GI50 in test [7] was 75.7 µM (inactive); in test [9] it was 59.2 µM (inactive).
For `O=C1C(=O)N(c2ccc(Cl)c(Cl)c2)C(=O)C(=O)C1c1nc2ccccc2s1`, the GI50 is > 100 µM (inactive) in test [1]; > 100 µM (inactive) in test [3]; 21.8 µM (inactive) in test [4]; > 100 µM (inactive) in [5]; > 100 µM (inactive) in [6]; > 100 µM (inactive) in [7]. Also, the GI50 in test [9] is > 100 µM (inactive).
Regarding `CCS(=O)(=O)Nc1ccc(Nc2c3ccccc3nc3ccccc23)c(OC)c1`, the GI50 in test [1] was 4.89 µM (inactive); in test [2], 0.0223 µM (active); in test [3], 0.216 µM (active); in [4], 0.809 µM (active); in test [5], 0.0324 µM (active); in test [6] it was 1.64 µM (inactive). Further, the GI50 in [7] was 2.56 µM (inactive).
As for `COC(=O)N/N=C(\C)c1sc(-c2nc(C)c(/C(C)=N/NC(=O)OC)s2)nc1C`, the GI50 in test [1] was 62.7 µM (inactive); in test [8] it was > 100 µM (inactive); in test [3], 42.2 µM (inactive); in [4] it was > 100 µM (inactive); in test [5] it was 95.9 µM (inactive); in test [6], > 100 µM (inactive). For the same molecule, the GI50 in test [7] and in test [9] was > 100 µM (inactive) each time.
As for `CC1=NN2C(c3ccc([N+](=O)[O-])cc3)=CSC2=NC(C)(C)C1`, the GI50 is > 100 µM (inactive) in test [1]; > 100 µM (inactive) in test [2]; > 100 µM (inactive) in test [8]; 67.8 µM (inactive) in [3]; > 100 µM (inactive) in [4]; > 100 µM (inactive) in test [5]. For the same molecule, the GI50 in [6], in [7] and in [9] was > 100 µM (inactive) each time.
Regarding `COc1cccc(/C=C2\CCC(C)(CN(C)C)C2=O)c1` (stereo not drawn), the GI50 in test [1] is > 100 µM (inactive); in test [2] it was > 100 µM (inactive); in [3], 69.3 µM (inactive); in test [4] it was > 100 µM (inactive); in test [5], 70.5 µM (inactive); in test [6], 98.2 µM (inactive). In addition, the GI50 in [7] is 62.4 µM (inactive).
As for `CCOC(=O)C(Sc1ccccc1)c1c(OC)cc(=O)oc1/C=[N+](/[O-])c1ccc(N(C)C)cc1` (stereo not drawn), the GI50 in test [1] was 27.1 µM (inactive); in [2], 14.6 µM (inactive); in test [3], 19.4 µM (inactive); in test [4] it was 17.1 µM (inactive); in test [5] it was 14 µM (inactive); in test [6], 19.8 µM (inactive). Besides, the GI50 is 28.1 µM (inactive) in test [7] and 14.1 µM (inactive) in test [9].
`CN(C)CC1CCC/C1=N/OC(=O)c1ccccc1` (stereo not drawn): the GI50 in [1], in test [8], in test [3], in test [4], in test [5] and in test [6] was > 100 µM (inactive) each time. Besides, the GI50 in [7] and in [9] was > 100 µM (inactive) each time.
On to `O=C(CCN(C(=O)O)S(=O)(=O)c1ccc(NC(=O)c2ccccc2)cc1)Nc1ccccc1`, for which the GI50 in test [1] was > 100 µM (inactive); in test [2], > 100 µM (inactive); in [8] it was > 100 µM (inactive); in test [3] it was > 56 µM (inactive); in [4], > 17.1 µM (inactive); in test [5] it was > 65.3 µM (inactive). The results for the GI50 in test [6], in test [7] and in test [9] were > 76.9 µM (inactive), > 79.8 µM (inactive) and > 100 µM (inactive), respectively.
Consider `Cc1nc2c(=O)n(C)c(=O)nc-2n(-c2ccc(Cl)cc2)c1C`, for which the GI50 in [1], in test [2], in [8], in test [3], in [4] and in test [5] was > 100 µM (inactive) in each case. Moreover, the GI50 was > 100 µM (inactive) in test [6], 85.9 µM (inactive) in test [7] and 62.7 µM (inactive) in [9].
Consider `NC(=O)c1ncn(CCN2CCN(C(=O)NCCCCCCNC(=O)N3CCN(CCn4cnc(C(N)=O)c4N)CC3)CC2)c1N`, for which the GI50 in [1], in test [2], in test [8], in test [4], in [5] and in [7] was > 100 µM (inactive) each time. Further, in test [9], the GI50 was > 100 µM (inactive).
Regarding `CC(C)Cc1ccc(C(C)/C=C2\CCC(CN3CCOCC3)C2=O)cc1` (stereo not drawn), the GI50 in [1] is 20.9 µM (inactive); in test [2] it was 16.4 µM (inactive); in test [8] it was 18.1 µM (inactive); in test [3], 13.4 µM (inactive); in [4], 7.87 µM (inactive); in [6] it was 10.2 µM (inactive). Besides, the GI50 is 2.71 µM (inactive) in [7] and 1.64 µM (inactive) in [9].
On to `O=C(Nc1ccccc1-c1nn(CN2CCNCC2)c(=S)n(CN2CCNCC2)c1=O)C(F)(F)F`, for which the GI50 in [1] was 23 µM (inactive); in test [8], 20.7 µM (inactive); in [3], 19.1 µM (inactive); in [4], 18.2 µM (inactive); in test [5], 18.1 µM (inactive); in test [6], 17.9 µM (inactive). Moreover, the GI50 in test [7] was 16.5 µM (inactive).
`C/C(=N\Nc1nnc(S)n1N)c1c(O)cc(C)oc1=O`: the GI50 in test [1], in test [4], in test [6], in test [7] and in [9] was > 100 µM (inactive) each time.
For the molecule `C[Si](C)(C)[C@@]1([Se]c2ccccc2)CC[C@@H]1C(=O)c1ccccc1`, the GI50 in test [1] is > 100 µM (inactive); in test [8], > 100 µM (inactive); in test [3], 38.5 µM (inactive); in test [5], 59.3 µM (inactive); in test [6], 32.5 µM (inactive); in test [7] it was 77.4 µM (inactive). Moreover, the GI50 in [9] was 65.6 µM (inactive).
For `CC12O[Te]34OC1(C)C(C)(O3)C2(C)O4`, the GI50 in test [1] was 25.5 µM (inactive); in [3] it was 13.6 µM (inactive); in test [4], 17.5 µM (inactive); in [5], 16.4 µM (inactive); in test [6] it was 13.5 µM (inactive); in [7], 15.3 µM (inactive). The GI50 in [9] was 14.6 µM (inactive).
In the case of `O=C(CC1(O)C(=O)Nc2c(Cl)cccc21)c1ccccc1` (stereo not drawn), the GI50 in [1], in [2], in [3], in test [4], in test [5] and in test [7] was > 100 µM (inactive) each time. Also, the GI50 in test [9] is > 100 µM (inactive).
With `C/C=C/CC(S(=O)(=O)c1ccccc1)S(=O)(=O)c1ccccc1`, the GI50 in [2] is > 100 µM (inactive); in test [3] it was 14 µM (inactive); in test [4] it was > 100 µM (inactive); in test [5] it was > 100 µM (inactive); in test [7], > 100 µM (inactive).
